The nature of this data set: gradient 5% acetonitrile 3 min, to 50% in 2 min, to 85% in 15 min, held 3 min, 100 µL/min. The settings on record: column: Zorbax Extend-C18 2.1 x 50 mm; eluents: water / acetonitrile, 0.1% formic acid. Summed up: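 Each retention time is based on an adduct peak selected computationally and verified by manual inspection. Measurements used HPLC–quadrupole time-of-flight mass spectrometry in positive and negative ionization mode on mixtures of ~100 pure standards. Chromatography ran on a Zorbax Extend-C18 column (2.1 × 50 mm, 1.8 μm) at 100 μL/min with water and acetonitrile, each containing 0.1% formic acid, and dead and dwell volumes of 40 μL and 900 μL.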
In the case of `Cc1cccc(OCc2nc(-c3ccc(NS(=O)(=O)c4cccs4)cc3)no2)c1`, the RP-LC retention time stood at 1090 s.

As for `Cc1nnc(-c2cn(CC(=O)Nc3ccc(Br)cc3)c3ccccc23)o1`, the RP-LC retention time is 888 s.

As for `CCN1C(=O)c2cc(S(=O)(=O)Nc3cc(F)cc(F)c3)ccc2Oc2cccnc21`, the RP-LC retention time came to 1040 s.

The compound `CCOc1ccccc1NC(=O)CN1C(=O)C(C)(C)c2ccccc21` displayed an RP-LC retention time of 976 s.

On to `Cc1ccc(-c2cc3c(=O)n(Cc4noc(CN5CCCC5)n4)ccn3n2)cc1`, for which the RP-LC retention time came out at 654 s.

In turn, `Cc1ccc(-c2noc(-c3ccc(=O)n(Cc4cccc(F)c4)n3)n2)cc1` yielded an RP-LC retention time of 1150 s.

Compound `O=C([C@@H]1C[C@H](Oc2cccnc2)CN1C(=O)CCC1CCCC1)N1CCCC1` displayed an RP-LC retention time of 640 s.

Regarding `O=C(NCc1ccccc1C(F)(F)F)C1CCN(c2cncnc2N2CCCC2)CC1`, the RP-LC retention time is 695 s.

Regarding `CN(C)CCNc1ccc(-c2nc(-c3ccc(F)cc3)no2)cn1`, the RP-LC retention time turned out to be 668 s.

For `O=C(Nc1ccc(N2CCN(C3CCCCC3)C2=O)nc1)c1ccccc1`, the RP-LC retention time was determined as 630 s.

In turn, `CCc1ccccc1NC(=O)C(=O)c1cn(CC(=O)N2CCCC2)c2ccccc12` returned an RP-LC retention time of 644 s.

`CCc1ccc(CNC(=O)CN2CCc3ccccc3C2C(=O)N2CCC(C)CC2)cc1` (stereo not given) registered an RP-LC retention time of 1050 s.

As to `COc1cccc(CNC(=O)C2(C)CCCN(S(=O)(=O)c3ccc(Cl)cc3)C2)c1` (stereo not given), the RP-LC retention time stood at 932 s.

As for `COC(=O)Cn1cnc2c(-c3ccc(Br)cc3)csc2c1=O`, the RP-LC retention time came to 943 s.

For the compound `Cc1cccn2cc(-c3cccc(S(=O)(=O)N4CCOCC4)c3)nc12`, the RP-LC retention time worked out at 604 s.

`O=C(NCc1ccccc1)C1CCCN(c2nc3ccsc3c(=O)n2Cc2ccc(F)cc2)C1` (stereo not given) returned an RP-LC retention time of 943 s.

The compound `O=C(NC1CCCCC1)C1CCCN(c2ncnc3c2nc2n3CCCCC2)C1` (stereo not given) showed an RP-LC retention time of 778 s.

In turn, `CC1CCN(S(=O)(=O)c2cc(-c3ccc(N4CCCC(C)C4)nn3)cs2)CC1` (stereo not given) showed an RP-LC retention time of 915 s.

`Cn1c(CN2CCN(C(=O)c3cccs3)CC2)nc2cc(C(=O)N3CCCC3)ccc21` had an RP-LC retention time of 597 s.

Regarding `COc1ccc2nc(C(=O)NCc3cc(F)ccc3F)cn2n1`, the RP-LC retention time is 823 s.

In the case of `Cc1ccc(-c2nnc(N3CCC(C(=O)NCCC(C)C)CC3)o2)cc1`, the RP-LC retention time came out at 881 s.

Regarding `O=C(C1CC(=O)N(c2ccc3c(c2)CCN3C(=O)C2CC2)C1)N1CCCC1` (stereo not given), the RP-LC retention time worked out at 647 s.

The compound `COc1c2c(cc3c1[C@@H]1Oc4c(ccc(O)c4CC=C(C)C)[C@@H]1CO3)OC(C)(C)C=C2` returned an RP-LC retention time of 710 s.

Turning to `O=C1NCCCCCCN(C(=O)Nc2ccc3c(c2)OCCO3)[C@H]2CCCC[C@@H]12`, the RP-LC retention time came out at 808 s.

`Cc1nnc(-c2cc(C)n(CC(=O)Nc3ccc(Br)cc3)c2C)o1` registered an RP-LC retention time of 836 s.

In turn, `Cc1ccc(C)c(CS(=O)(=O)N2CCc3nc(-c4ccc(F)cc4)ncc3C2)c1` came in with an RP-LC retention time of 1160 s.

Turning to `O=C(NCCc1c[nH]c2ccccc12)C(=O)c1cn(CC(=O)N2CCOCC2)c2ccccc12`, the RP-LC retention time stood at 832 s.

As for `COc1ccc(-c2cn3c(CC(=O)Nc4ccc(F)c(F)c4)csc3n2)cc1OC`, the RP-LC retention time turned out to be 774 s.

Compound `O=C(NC1CCCC1)c1csc(-c2ccc(N3CCCCC3)nc2)n1` showed an RP-LC retention time of 937 s.

Regarding `O=C(CC1CCCC1)NCCc1noc(C2CC2)n1`, the RP-LC retention time came to 713 s.

For `O=C(c1ccco1)N1CCN(c2ccc(=O)n(-c3cccc(Cl)c3)n2)CC1`, the RP-LC retention time turned out to be 753 s.

Turning to `COc1ccc(NC2=NS(=O)(=O)C(c3ccc(OC)cc3)=C2C)cc1`, the RP-LC retention time turned out to be 910 s.

As for `CN1C(=O)c2cc(C(=O)NCCCN3CCCC3)nn2CC1(C)C(=O)NCc1ccccc1` (stereo not given), the RP-LC retention time is 589 s.

Turning to `N#Cc1ccc(C(=O)Nc2cnc(N3CCCCCC3)nc2)cc1`, the RP-LC retention time stood at 891 s.

`CCn1cnc(S(=O)(=O)N2CCCC(C(=O)Nc3ccc(-c4nc5ccccc5[nH]4)cc3)C2)c1` (stereo not given) showed an RP-LC retention time of 633 s.

`CCOC(=O)C(=CNc1ccccc1Cl)C(=O)OCC` displayed an RP-LC retention time of 1130 s.

For `Cc1ccc2nc(-c3cc(Br)ccc3F)c(Nc3ccc4c(c3)OCO4)n2c1`, the RP-LC retention time worked out at 762 s.

Compound `COc1ccccc1-c1nc(C2CCN(C(=O)c3n[nH]c4c3CCCC4)CC2)no1` gave an RP-LC retention time of 759 s.

Take `CCN1CCN(C2=NCCN2C(=O)c2ccccc2Br)CC1`: the RP-LC retention time was determined as 898 s.

In the case of `Cc1ccc(Nc2c(-c3ccccc3O)nc3ncccn23)c(C)c1`, the RP-LC retention time is 744 s.

As for `CCn1c(=O)c(SCC(=O)NCCCN2CCCC(C)C2)nc2ccccc21` (stereo not given), the RP-LC retention time was 615 s.

Regarding `O=C(N1CCC(Cc2nc(-c3ccccc3)n[nH]2)C1)C1(c2ccccc2)CC1` (stereo not given), the RP-LC retention time came out at 755 s.

`CCc1nnc(-c2ccc3ccn(CC(=O)Nc4ccc5c(c4)OCO5)c3c2)o1` returned an RP-LC retention time of 794 s.

For `COc1ccc(OC)c(-c2cn3ccn(-c4ccc(Br)cc4)c(=O)c3n2)c1`, the RP-LC retention time is 912 s.

Compound `Cc1ccc(C)c(S(=O)(=O)Nc2ccc(-c3cn4ccc(C)nc4n3)cc2)c1` returned an RP-LC retention time of 678 s.

In turn, `CC1(C)CC(O)CC(C)(C)N1CC(O)COCCOc1ccc(F)cc1` (stereo not given) returned an RP-LC retention time of 565 s.

`O=C(NCc1cccc(Cl)c1)C1CCCN(c2nccnc2Oc2ccccc2)C1` (stereo not given) registered an RP-LC retention time of 1020 s.

Compound `COc1cccc(CNC(=O)C2CCN(C(=O)C3Sc4ccccc4NC3=O)CC2)c1` (stereo not given) registered an RP-LC retention time of 725 s.

Compound `Cc1c(C(=O)NCC(c2cccs2)N2CCCC2)oc2ccc(Cl)cc12` (stereo not given) displayed an RP-LC retention time of 730 s.

Consider `CCOCC(=O)N1CCCC(c2nc(CNC(=O)C3CCC3)cs2)C1` (stereo not given), for which the RP-LC retention time was 645 s.

Regarding `CN(C(=O)Cn1cnc2c(-c3ccc(Cl)cc3)csc2c1=O)c1ccccc1`, the RP-LC retention time was found to be 1020 s.

Turning to `COc1ccccc1-c1nnc(NC(=O)c2ccc3c(c2)CCCC3)o1`, the RP-LC retention time came out at 822 s.

On to `CCCc1noc(-c2cccnc2N2CCCN(Cc3cc(F)cc(F)c3)CC2)n1`, for which the RP-LC retention time amounted to 733 s.

`COC(=O)c1cc(C2CC2)nc2c1c(=O)n(Cc1ccccc1F)c(=O)n2C` showed an RP-LC retention time of 1080 s.

Regarding `Cc1nc2cccnc2n1C1CCN(C(=O)Nc2cccc(F)c2)CC1`, the RP-LC retention time stood at 947 s.

For `O=C(C1CCN(c2ncccc2-c2nc(-c3cccc(F)c3)no2)CC1)N1CCC2(CC1)OCCO2`, the RP-LC retention time turned out to be 1010 s.

The compound `Cc1ccc2c(C(=O)O)cc(NC(=O)C(C)C)cc2n1` showed an RP-LC retention time of 563 s.

As to `CN(C(=O)CN(Cc1ccc(Cl)cc1)S(=O)(=O)c1cccnc1)c1ccccc1`, the RP-LC retention time came to 917 s.

Compound `O=C(Nc1ccc(-c2nc(-c3ccccc3)no2)cc1)C1CC(=O)N(C2CCCCC2)C1` (stereo not given) yielded an RP-LC retention time of 1070 s.

The compound `CCN1CCN(S(=O)(=O)c2cccc(-c3nc(-c4ccc(C)cc4)no3)c2)CC1` had an RP-LC retention time of 786 s.

As for `CCCS(=O)(=O)NCC1CC(=O)N(c2ccc(F)cc2)C1` (stereo not given), the RP-LC retention time is 669 s.

For `Cc1cc(NC(=O)C2CCCN(c3nnc4cccc(C)n34)C2)ccc1F` (stereo not given), the RP-LC retention time amounted to 721 s.

`CCN1C(=O)CCc2cc(NS(=O)(=O)c3ccccc3C(=O)OC)ccc21`: the RP-LC retention time was determined as 790 s.

`CCCN1C(=O)COc2ccc(-c3noc(CNS(=O)(=O)c4ccc(F)cc4)n3)cc21` showed an RP-LC retention time of 884 s.

The compound `O=C(Nc1ccccc1Br)N1CCc2nc(-c3ccccc3)ncc2C1` came in with an RP-LC retention time of 964 s.

`Cc1nc(OCC(=O)NCc2ccc(F)cc2)c2ccccc2n1` displayed an RP-LC retention time of 705 s.

The compound `O=C(CSc1nnc(Cc2ccccc2)o1)N1CCOCC1` returned an RP-LC retention time of 636 s.

Take `Cc1ccc(CC(=O)N2CCC3(CC2)N=C(c2ccc(C)cc2)NO3)cc1`: the RP-LC retention time stood at 874 s.

`CSc1ccccc1CN1CCC(CNC(=O)C(=O)Nc2ccc3c(c2)OCO3)CC1` returned an RP-LC retention time of 586 s.

On to `CCCCC(=O)Nc1ccc2nc(N3CCN(CCC#N)CC3)cc(C(=O)O)c2c1`, for which the RP-LC retention time was 570 s.

As to `COc1ccc(NC(=O)N2CCC3(CC2)NC(=O)c2ccc(Cl)cc2N3C)c(C)c1`, the RP-LC retention time was 787 s.

`O=C(NC1CCCCC1)c1ncoc1-c1ccccc1C(=O)N1CCCC1` had an RP-LC retention time of 798 s.

Compound `Cc1cnc(C2CC2)n1CCNS(=O)(=O)c1ccccc1C(F)(F)F` had an RP-LC retention time of 569 s.

`O=C(CN1CC(c2nc(Cc3ccccc3)no2)C1)NCc1ccc(F)cc1`: the RP-LC retention time turned out to be 595 s.

Consider `CN(CC(=O)Nc1ccc(S(N)(=O)=O)cc1)c1nc2ccccc2s1`, for which the RP-LC retention time is 662 s.

For `O=C(CCc1ccc2c(c1)CNCCO2)NCC1CC1`, the RP-LC retention time is 574 s.

For the compound `CCCOc1nc2ccccc2nc1N1CCCC(C(=O)Nc2ccccc2OCC)C1` (stereo not given), the RP-LC retention time is 1280 s.

Compound `CCn1c(=O)c(C(=O)NCCN2CCc3ccccc3C2)nc2cccnc21` showed an RP-LC retention time of 620 s.

Turning to `CC(C)N1C(=O)c2cccnc2Sc2cc(NC(=O)Cc3ccc(Cl)cc3)ccc21`, the RP-LC retention time turned out to be 954 s.

The compound `Cc1cccc(NC(=O)N2CCN(c3cnn4c(C)nnc4c3)CC2)c1` came in with an RP-LC retention time of 627 s.

Source of the values: the METLIN SMRT retention time set (Domingo-Almenara et al. 2019).
